From paper PMC9650428, “Mutagenesis and functional analysis of SotB: A multidrug transporter of the major facilitator superfamily from Escherichia coli” (Frontiers in Microbiology, 2022)
Changes are numbered by the printed parent chain.

Assays:
SotB N343A = molecular target: T1, SotB N343A (Escherichia coli, UniProt P31122, N343A); test: SPR affinity assay, SotB variant N343A; assay type: binding
T1 construct: The full-length sotB and lapC genes from the E. coli MG1655 genome were subcloned into the cloning vector pET28a; 8xHis (C); made in house; host or cells: E. coli C43(DE3)
T1 sequence (P31122 1-396 N343A): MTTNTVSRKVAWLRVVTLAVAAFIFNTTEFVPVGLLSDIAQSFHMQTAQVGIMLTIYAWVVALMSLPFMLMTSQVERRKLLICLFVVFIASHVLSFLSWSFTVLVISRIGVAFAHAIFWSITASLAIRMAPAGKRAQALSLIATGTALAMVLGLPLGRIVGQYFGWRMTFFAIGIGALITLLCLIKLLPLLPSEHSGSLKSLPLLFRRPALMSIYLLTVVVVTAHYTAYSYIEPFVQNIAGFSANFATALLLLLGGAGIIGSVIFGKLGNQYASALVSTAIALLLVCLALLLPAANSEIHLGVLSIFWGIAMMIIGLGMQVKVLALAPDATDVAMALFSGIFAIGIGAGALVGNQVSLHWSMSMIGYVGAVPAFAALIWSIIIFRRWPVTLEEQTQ
Procedure: (§1) The instrument used in surface plasmon resonance (SPR) affinity assays was OpenSPR (Nicoya, Canada) and the chip used was COOH sensor chip (Nicoya, Canada). SotB and its variants were as ligands. IPTG, L-arabinose, D-xylose, D-glucose, D-fructose, and D-mannose were as small molecules. Using HSB-EP buffer (10 mM HEPES, 150 mM NaCl, 3 mM EDTA, 0.005% Tween-20, pH7.4) as test buffer and setting flow rate 150 μl/min after installed COOH chip according to OpenSPRTM instrument standard operating procedure. After the signal baseline was reached, loading 200 μl 80% isopropyl alcohol and ran for 10 s to drain bubbles. After reaching baseline, the sample ring was rinsed with HSB-EP buffer and emptied with air. After the signal reached the baseline, loading 200 μl EDC (400 mM, Sigma)/NHS (100 mM, Sigma; 1:1) solution with a flow rate 20 μl/min for 4 min. Then, loading 200 μl ligand (SotB/SotB variants) diluted by the activation buffer (sodium acetate, 10 mM, pH3.5) and ran for 4 min (20 μl/min). Then the sample ring was rinsed with HSB-EP buffer and emptied with air. Loading 200 μl 1 M ethanolamine (Sigma) blocking solution (20 μl/min, 4 min), rinsed the sample ring with HSB-EP buffer, and emptied the sample ring with air. Observing baseline for 5 min to ensure stability. The small molecules were diluted with PBS buffer (2 mM of KH2PO4, 10 mM of Na2HPO4, 2.7 mM of KCl, and 137 mM of NaCl at pH 7.4), and the concentration was shown in the experimental results. The flow rate for small molecules was performed at 20 μl/min. The binding time of small molecule and ligand was 240 s, and the dissociation was 240 s. The analysis software used for the experimental results was TraceDrawer, and the analysis method was one-to-one analysis model.

SotB E29A = molecular target: T2, SotB E29A (Escherichia coli, UniProt P31122, E29A); test: SPR affinity assay, SotB variant E29A; settings: read-out: KD, binding affinity with E29A
T2 construct: The full-length sotB and lapC genes from the E. coli MG1655 genome were subcloned into the cloning vector pET28a; 8xHis (C); made in house; host or cells: E. coli C43(DE3)
T2 sequence (P31122 1-396 E29A): T1 sequence (P31122 1-396 N343A) with E29A, A343N
Procedure: as §1, with “The small molecules were diluted with PBS buffer (2 mM of KH2PO4, 10 mM of Na2HPO4, 2.7 mM of KCl, and 137 mM of NaCl at pH 7.4), and the concentration was shown in the experimental results. The flow rate for small molecules was performed at 20 μl/min. The binding time of small molecule and ligand was 240 s, and the dissociation was 240 s. The analysis software used for the experimental results was TraceDrawer, and the analysis method was one-to-one analysis model.” left out

SotB W119A = molecular target: T3, SotB W119A (Escherichia coli, UniProt P31122, W119A); test: SPR affinity assay, SotB variant W119A; settings: read-out: KD, binding affinity with W119A
T3 construct: The full-length sotB and lapC genes from the E. coli MG1655 genome were subcloned into the cloning vector pET28a; 8xHis (C); made in house; host or cells: E. coli C43(DE3)
T3 sequence (P31122 1-396 W119A): T1 sequence (P31122 1-396 N343A) with W119A, A343N
Procedure: as §1, with “The small molecules were diluted with PBS buffer (2 mM of KH2PO4, 10 mM of Na2HPO4, 2.7 mM of KCl, and 137 mM of NaCl at pH 7.4), and the concentration was shown in the experimental results. The flow rate for small molecules was performed at 20 μl/min. The binding time of small molecule and ligand was 240 s, and the dissociation was 240 s. The analysis software used for the experimental results was TraceDrawer, and the analysis method was one-to-one analysis model.” left out

SotB = molecular target: T4, SotB (Escherichia coli, UniProt P31122); test: SPR affinity assay, wild-type SotB; assay type: binding; settings: SPR, wild-type SotB immobilised, one-to-one model; read-out: KD (equilibrium dissociation constant), binding affinity with SotB
T4 construct: The full-length sotB and lapC genes from the E. coli MG1655 genome were subcloned into the cloning vector pET28a; 8xHis (C); made in house; host or cells: E. coli C43(DE3)
T4 sequence (P31122 whole entry): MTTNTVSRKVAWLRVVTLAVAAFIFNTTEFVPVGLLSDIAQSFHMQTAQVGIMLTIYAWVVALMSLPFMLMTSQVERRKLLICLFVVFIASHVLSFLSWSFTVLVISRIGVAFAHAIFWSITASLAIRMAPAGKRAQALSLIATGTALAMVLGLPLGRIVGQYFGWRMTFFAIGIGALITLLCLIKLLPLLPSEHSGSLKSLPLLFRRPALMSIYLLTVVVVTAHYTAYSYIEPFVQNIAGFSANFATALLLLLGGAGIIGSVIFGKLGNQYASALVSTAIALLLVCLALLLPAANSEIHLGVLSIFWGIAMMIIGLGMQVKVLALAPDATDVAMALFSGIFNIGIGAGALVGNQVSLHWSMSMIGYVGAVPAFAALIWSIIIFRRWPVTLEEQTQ
Procedure: as §1

## OC1OC[C@H](O)[C@H](O)[C@H]1O (mixture of isomers) [L-arabinose]
SotB N343A; N343A vs wild-type SotB
  Binding affinity of N343A, fold lower than the wild-type protein: 3.5 fold
SotB N343A; SotB variant N343A, read-out: KD, binding affinity with N343A
  Kd: 14.5 mM
SotB E29A
  Kd: 5.1 mM
SotB W119A
  Kd: 4.9 mM
SotB
  Kd: 4.1 mM
